Measured values as given in PubChem BioAssay AID330 (DTP/NCI, 2004).
Where “and” joins values, the source holds several entries; their conditions need not be identical. Equal values may be shown once. Toxic doses and inconclusive results are not listed. Rule for the calls: active = survival T/C of 150% or more; inactive = T/C below 125% in these data.

System: P388 leukemia ip, CD2F1 mice, survival T/C
Experiment: NCI In Vivo Anticancer Drug Screen. Data for tumor model P388 Leukemia (intraperitoneal) in CD2F1 (CDF1) mice
Details: endpoint: median survival time, higher = longer survival
Outline: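 Mice carrying the transplanted tumor received test compound or vehicle. Survival was recorded in each group, and the value is the treated-group measurement divided by that of the vehicle-treated control group.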

[1] = dose: 25.0 mg/kg/injection, schedule: Q01DX005 (ip), vehicle: Klucel (hydroxypropylcellulose) (HPC)
[2] = dose: 50.0 mg/kg/injection, schedule: Q01DX005 (ip), vehicle: Klucel (hydroxypropylcellulose) (HPC)
[3] = dose: 100.0 mg/kg/injection, schedule: Q01DX005 (ip), vehicle: Klucel (hydroxypropylcellulose) (HPC)
[4] = dose: 50.0 mg/kg/injection, schedule: Q01DX009 (ip), vehicle: Klucel (hydroxypropylcellulose) (HPC)
[5] = dose: 100.0 mg/kg/injection, schedule: Q01DX009 (ip), vehicle: Klucel (hydroxypropylcellulose) (HPC)
[6] = dose: 25.0 mg/kg/injection, schedule: Q01DX005 (ip), vehicle: saline with Tween-80
[7] = dose: 50.0 mg/kg/injection, schedule: Q01DX005 (ip), vehicle: saline with Tween-80
[8] = dose: 100.0 mg/kg/injection, schedule: Q01DX005 (ip), vehicle: saline with Tween-80
[9] = dose: 60.0 mg/kg/injection, schedule: Q01DX005 (ip), vehicle: saline with Tween-80
[10] = dose: 120.0 mg/kg/injection, schedule: Q01DX005 (ip), vehicle: saline with Tween-80
[11] = dose: 60.0 mg/kg/injection, schedule: Q01DX005 (ip), vehicle: Klucel (hydroxypropylcellulose) (HPC)
[12] = dose: 120.0 mg/kg/injection, schedule: Q01DX005 (ip), vehicle: Klucel (hydroxypropylcellulose) (HPC)
[13] = dose: 240.0 mg/kg/injection, schedule: Q01DX005 (ip), vehicle: Klucel (hydroxypropylcellulose) (HPC)
[14] = dose: 100.0 mg/kg/injection, schedule: Q04DX003 (ip), vehicle: saline
[15] = dose: 200.0 mg/kg/injection, schedule: Q04DX003 (ip), vehicle: saline
[16] = dose: 200.0 mg/kg/injection, schedule: Q01DX009 (ip), vehicle: Klucel (hydroxypropylcellulose) (HPC)
[17] = dose: 50.0 mg/kg/injection, schedule: Q01DX009 (ip), vehicle: saline
[18] = dose: 100.0 mg/kg/injection, schedule: Q01DX009 (ip), vehicle: saline
[19] = dose: 200.0 mg/kg/injection, schedule: Q01DX009 (ip), vehicle: saline
[20] = dose: 200.0 mg/kg/injection, schedule: Q01DX005 (ip), vehicle: saline with Tween-80

Measured: T/C

Cn1c(C(Cl)Cl)nc2ccccc2c1=O
inactive: dose: 12.5 mg/kg/injection, schedule: Q04DX003 (ip), vehicle: Klucel (hydroxypropylcellulose) (HPC) 95 % of control | dose: 25.0 mg/kg/injection, schedule: Q04DX003 (ip), vehicle: Klucel (hydroxypropylcellulose) (HPC) 104 % of control | dose: 50.0 mg/kg/injection, schedule: Q04DX003 (ip), vehicle: Klucel (hydroxypropylcellulose) (HPC) 104 % of control

CC(C)(C)N1N=C2CCCC2[Si]1(C)C (configuration not stated)
inactive: [1] 105 % of control | [2] 102 % of control | [3] 102 % of control

CC(C)(C)c1nnc2cccc(Cl)n12
inactive: dose: 100.0 mg/kg/injection, schedule: Q01DX001 (ip), vehicle: Klucel (hydroxypropylcellulose) (HPC) 100 % of control | dose: 200.0 mg/kg/injection, schedule: Q01DX001 (ip), vehicle: Klucel (hydroxypropylcellulose) (HPC) 99 % of control | dose: 400.0 mg/kg/injection, schedule: Q01DX001 (ip), vehicle: Klucel (hydroxypropylcellulose) (HPC) 103 % of control

CN(Cc1ccccc1)CC(CCC1OCCO1)(CCC1OCCO1)c1ccccc1
inactive: [4] 96 % of control | [5] 91 % of control

NC(N)=N/N=C/c1nccc2ccccc12
inactive: [6] 99 % of control and 103 % of control | [7] 98 % of control and 99 % of control and 102 % of control | [8] 105 % of control and 120 % of control

O=C(Sc1ccccc1)C1CC=CCC1 (configuration not stated)
inactive: [4] 109 % of control | [5] 105 % of control

CCOC(=O)c1cc(-c2cc(C(=O)OCC)c3ccccc3n2)nc2ccccc12
inactive: dose: 6.25 mg/kg/injection, schedule: Q01DX005 (ip), vehicle: saline with Tween-80 96 % of control | dose: 12.5 mg/kg/injection, schedule: Q01DX005 (ip), vehicle: saline with Tween-80 95 % of control | [6] 100 % of control | [8] 86 % of control

O=C(N/N=C/c1ccc(Cl)cc1)c1cc2ccccc2oc1=O
inactive: dose: 100.0 mg/kg/injection, schedule: Q01DX001 (ip), vehicle: saline 100 % of control | dose: 200.0 mg/kg/injection, schedule: Q01DX001 (ip), vehicle: saline 103 % of control | dose: 400.0 mg/kg/injection, schedule: Q01DX001 (ip), vehicle: saline 105 % of control

CCOC(=O)/N=C1/CCCC(=O)C1O (configuration not stated)
inactive: [1] 102 % of control | [2] 103 % of control | [3] 93 % of control | dose: 200.0 mg/kg/injection, schedule: Q01DX005 (ip), vehicle: Klucel (hydroxypropylcellulose) (HPC) 101 % of control

C=CC1CN2CCC1CC2C(O)c1ccnc2ccccc12 (configuration not stated)
inactive: dose: 60.0 mg/kg/injection, schedule: Q01DX005 (ip), vehicle: saline 98 % of control | dose: 120.0 mg/kg/injection, schedule: Q01DX005 (ip), vehicle: saline 98 % of control

COc1ccccc1OCC1CCC(=O)O1 (configuration not stated)
inactive: dose: 100.0 mg/kg/injection, schedule: Q04DX002 (ip), vehicle: Klucel (hydroxypropylcellulose) (HPC) 95 % of control | dose: 200.0 mg/kg/injection, schedule: Q04DX002 (ip), vehicle: Klucel (hydroxypropylcellulose) (HPC) 103 % of control | dose: 400.0 mg/kg/injection, schedule: Q04DX002 (ip), vehicle: Klucel (hydroxypropylcellulose) (HPC) 101 % of control

CC(C)(C)c1ccc(C(=O)n2c(=S)oc3ccc(Cl)cc32)cc1
inactive: [9] 96 % of control | [10] 95 % of control | dose: 240.0 mg/kg/injection, schedule: Q01DX005 (ip), vehicle: saline with Tween-80 94 % of control

O=C(c1ccccc1)C1Nc2ccccc2CO1 (configuration not stated)
inactive: [11] 99 % of control | [12] 107 % of control | [13] 97 % of control

N#CNC(=NC12CC3CC(CC(C3)C1)C2)Nc1ccncc1
inactive: dose: 100.0 mg/kg/injection, schedule: Q04DX002 (ip), vehicle: saline with Tween-80 100 % of control | dose: 400.0 mg/kg/injection, schedule: Q04DX002 (ip), vehicle: saline with Tween-80 109 % of control

Cc1cc2nc(CN)[nH]c2cc1C
inactive: dose: 50.0 mg/kg/injection, schedule: Q04DX003 (ip), vehicle: saline 100 % of control | [14] 100 % of control | [15] 95 % of control

O=C1OC(C2OC(=O)C(=O)C2C(=O)c2ccc([N+](=O)[O-])cc2)C(C(=O)c2ccc([N+](=O)[O-])cc2)C1=O (configuration not stated)
inactive: [9] 98 % of control | [10] 94 % of control

CS1(=O)=N/C(=N\C(=O)Nc2ccccc2)c2ccccc21 (configuration not stated)
inactive: [4] 100 % of control | [5] 102 % of control | [16] 102 % of control

CC(C)NNC(=O)c1ccncc1
inactive: dose: 12.5 mg/kg/injection, schedule: Q01DX009 (ip), vehicle: saline 96 % of control | dose: 25.0 mg/kg/injection, schedule: Q01DX009 (ip), vehicle: saline 101 % of control | [17] 103 % of control | [18] 96 % of control | [19] 98 % of control | dose: 400.0 mg/kg/injection, schedule: Q01DX009 (ip), vehicle: saline 64 % of control

CC1OC2=C(C(=O)c3ccccc3C2=O)C(O)C1O (configuration not stated)
inactive: dose: 25.0 mg/kg/injection, schedule: Q01DX001 (ip), vehicle: Klucel (hydroxypropylcellulose) (HPC) 96 % of control | dose: 50.0 mg/kg/injection, schedule: Q01DX001 (ip), vehicle: Klucel (hydroxypropylcellulose) (HPC) 96 % of control

CC(C)(C)C(=O)CC(=O)C(F)(F)C(F)(F)C(F)(F)F.[Ag]
inactive: dose: 6.25 mg/kg/injection, schedule: Q01DX009 (ip), vehicle: saline with Tween-80 119 % of control | dose: 12.5 mg/kg/injection, schedule: Q01DX009 (ip), vehicle: saline with Tween-80 119 % of control | dose: 25.0 mg/kg/injection, schedule: Q01DX009 (ip), vehicle: saline with Tween-80 114 % of control

C=CCn1c(Br)nc2c1c(=O)n(CC)c(=O)n2CC
inactive: dose: 16.0 mg/kg/injection, schedule: Q01DX009 (ip), vehicle: Klucel (hydroxypropylcellulose) (HPC) 107 % of control | dose: 32.0 mg/kg/injection, schedule: Q01DX009 (ip), vehicle: Klucel (hydroxypropylcellulose) (HPC) 107 % of control | [4] 89 % of control | dose: 64.0 mg/kg/injection, schedule: Q01DX009 (ip), vehicle: Klucel (hydroxypropylcellulose) (HPC) 93 % of control | [5] 91 % of control | [16] 94 % of control

COC(=O)/C(=C/c1ccccc1)NC(C)=O
inactive: [11] 104 % of control | [12] 101 % of control | [13] 97 % of control

O=C(O)/C=C\C(=O)ONCc1ccccc1
inactive: [7] 106 % of control | [8] 106 % of control | [20] 106 % of control

COc1ccc2[nH]c3c(c2c1)CNCC3
inactive: [18] 110 % of control | [19] 112 % of control

O=C(O)c1c[nH]c2cc(OCc3ccc(F)cc3)ccc2c1=O
inactive: [14] 88 % of control | [15] 93 % of control | dose: 400.0 mg/kg/injection, schedule: Q04DX003 (ip), vehicle: saline 90 % of control

OCCN1CCOC(O)(c2cccc(C(F)(F)F)c2)C1 (configuration not stated)
inactive: [7] 101 % of control | [8] 95 % of control | [20] 96 % of control

CC/C(=N\NS(=O)(=O)c1ccc(C)cc1)c1ccc(Br)c(Br)c1
inactive: [17] 96 % of control | [18] 100 % of control | [19] 92 % of control
